Read-outs that look alike come from different tables or passages of the source.

The values below come from US20090099099A1, “Isoflavone Glycosides as Peroxisome Proliferator-Activated Receptor-alpha Modulator” (priority 2007, published 2009).

Data set [1] has as its target T1, PPAR-α (Homo sapiens, UniProt Q07869).
T1 sequence (Q07869 1-468): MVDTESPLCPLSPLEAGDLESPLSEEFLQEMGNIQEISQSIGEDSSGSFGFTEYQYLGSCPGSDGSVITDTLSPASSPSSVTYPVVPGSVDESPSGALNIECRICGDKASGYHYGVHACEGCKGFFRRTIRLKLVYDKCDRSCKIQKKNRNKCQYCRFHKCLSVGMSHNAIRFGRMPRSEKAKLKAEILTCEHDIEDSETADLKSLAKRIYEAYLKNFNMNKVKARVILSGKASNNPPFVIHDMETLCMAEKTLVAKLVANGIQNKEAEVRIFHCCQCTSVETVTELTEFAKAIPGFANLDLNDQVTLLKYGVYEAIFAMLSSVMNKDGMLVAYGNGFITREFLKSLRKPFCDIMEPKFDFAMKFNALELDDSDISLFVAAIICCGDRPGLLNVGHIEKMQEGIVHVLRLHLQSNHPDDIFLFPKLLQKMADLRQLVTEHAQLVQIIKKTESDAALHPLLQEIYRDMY
The following applies: cited from earlier work.

The conditions of data set [2]: mice; cited from earlier work.
The subject of data set [3] is PPAR-α. The data set is described as follows: Protein immuno-blotting of PPAR-α expression in HepG2 cells. The following applies: puerarin 1-100 μM, 24 hours, Western blotting. Format: cell-based, human. As to the method: FIG. 2. Expression of PPAR-α in HepG2 cells. Cells were incubated in puerarin (1-100 μM) for 24 hrs. Whole cell lysate were collected and PPAR-α expression was probed using anti-PPAR-α (Santa Cruz, Calif.) in Western blotting. Each lane was loaded with 50 μg protein from cell lysate. Expression of actin was also probed to ensure protein loading.
Cell Cultures HepG2 cells was purchased from American Type Culture Collection (Manassas, Va.). They were maintained in DMEM containing 10% heat-inactivated fetal bovine serum and 1% penicillin/streptomycin in tissue culture dishes incubated in 95% air/5% CO2, at 37° C. The media were changed 2 times per week until the cells were confluent.
Protein immuno-blotting of PPAR-α. HepG2 cells were collected in RIPA buffer (150 mM NaCl, 1% Triton X-100, 1% sodium deoxycholate, 0.1% sodium dodecyl sulfate, 50 mM Tris-HCl, 2 mM EDTA, pH 7.5) with protease inhibitors (Mini-Complete protease inhibitor cocktail tablets (Roche Diagnostics, Mannheim, Germany)] after incubated in puerarin (1-100 μM) for 24 hours. The protein content of the cell lysate was quantified by using a protein assay kit (Bio-Rad Lab, Hercules Calif.). Protein (50 μg) from the whole cell lysate was loaded in each lane of a polyacrylamide (10%) gel, eletrophoresed and blotted to a polyvinylidene difluoride (PVDF) membrane. […]

Data set [4] in a line: Body weights of SHRSP rats treated by gavage for 5 months. The format is in vivo. As to the method:
FIG. 3. Effects of puerarin on the body weights of rats. The rats were fed on a normal chow diet for 5 months starting when they were 4 weeks old. The rats were treated by gavage either with vehicle (normal saline) or puerarin (250 mg/Kg/day in a single dose in normal saline). The data were compared statistically by using two-way ANOVA with n=8 in each group.
Spontaneously hypertensive stroke-prone (SHRSP) male rats were fed on a normal chow diet for 5 months starting when they were 4 weeks old. The rats were treated by gavage either with vehicle (normal saline) or puerarin (250 mg/Kg/day in a single dose in normal saline). Their blood pressures and body weights were monitor everyday for 5 months.

For data set [5] the following is noted: cited from earlier work.
For data set [6] the following is noted: rats, oral intake; cited from earlier work.

Regarding `O=c1c(-c2ccc(O)cc2)coc2cc(O)ccc12` [daidzein], the “activation of PPAR-α” value at PPAR-α [1] is given as “activate PPAR-α”.

On to `O=c1c(-c2ccc(O)cc2)coc2cc(O[C@@H]3O[C@H](CO)[C@@H](O)[C@H](O)[C@H]3O)ccc12` [daidzin, reference compound], for which the “effect on glucose tolerance” value in data set [2] is recorded as “impairs glucose tolerance”.

Regarding `O=c1c(-c2ccc(O)cc2)coc2c([C@@H]3O[C@H](CO)[C@@H](O)[C@H](O)[C@H]3O)c(O)ccc12` [puerarin, 4H-1-Benzopyran-4-one, 8-β-D-glucopyranosyl-7-hydroxy-3-(4-hydroxyphenyl)], in the data set with PPAR-α [3], the PPAR-α expression entry is listed as “upregulated”. For the same compound, in data set [4] (250 mg/Kg/day by gavage, 5-month period, n=8, P<0.001), the “body weights, treatment group vs control group (two-way ANOVA)” value is listed as “significantly different”. The toxicity entry in data set [4] (250 mg/Kg/day orally, 5 months, rats) is given as “no apparent toxicity”. Further, the “body weight less than the control rats in average” value in data set [4] (250 mg/Kg/day orally, over 5 months period, SHRSP male rats, normal chow diet) is given as 13%. Moreover, the Effects result was “↓ the infarction size, ↓free fatty acids” in data set [5] (AMI patients (Xiao et al., 2004)); “Anti-angina, reducing both systolic” in data set [5] (Angina patients (Yang et al., 1990)); “Simulate the late phase of ischemic” in data set [5] (CHD patients (Xie et al., 2003)); “↓ oxidized-LDL, improve heart” in data set [5] (Chronic heart failure patients (Duan et al., 2000)); “Improve insulin resistance, and insulin” in data set [5] (Coronary heart disease (CHD) patients (Shi et al., 2002)); “↓ blood viscosity, improve” in data set [5] (Diabetic retinopathy patients (Ren et al., 2000)). Moreover, the Effects entry in data set [5] (Unstable angina (UA) patients (Luo and Zheng, 2001)) is reported as “↓ platelet granule membrane protein”. The “effect on glucose tolerance” value in data set [2] is on record as “improves glucose tolerance”. The “absorption from the intestine” value in data set [6] is “rapidly absorbed”. The “metabolism in the blood” value in data set [6] is “mostly remains unmetabolized”.
